Assay results from patent publication US20100004277A1, “COMPOUNDS AND METHODS FOR MODULATING PROTEIN TRAFFICKING” (FoldRx Pharmaceuticals, Inc., priority 2006, published 2010).
Residues, ends and D or L forms follow the SMILES beside them. *: point of attachment. Cbz = O=C(OCc1ccccc1)*

Legend:
ypt1^ts cells = assay: ypt1^ts mutant growth rescue assay (OD600); format: cell-based, yeast; conditions: for rescue of ypt1^ts loss of function / restoring growth of ypt1^ts: 35° C. and 37° C.
Text: The yeast mutant cell line ypt1^ts suppresses, in a temperature dependent fashion, the dominant-lethal phenotype of a mutant YPT1 allele (Schmitt et al. (1988) Cell 53:635-47). The yeast mutant cell line ypt1^ts contains an allele of YPT1 that has two point mutations: one that changes an asparagine at position 121 to a isoleucine (N121I) and another that changes an alanine at position 161 to a valine (A161V). The N121I mutation causes dominant lethality by itself, but lethality is suppressed by the second mutation, resulting in a recessive loss of function phenotype at the restrictive temperatures. ypt1^ts cells grow normally at temperatures up to 25° C., but are growth arrested at 37° C. (Id.).
Compounds that rescue cells from alpha-synuclein toxicity were screened to assess their ability to restore growth of ypt1^ts cells. The effect of the compounds was measured on ypt1^ts cells cultured at room temperature (permissive temperature), 37° C. (non-permissive temperature), and 35° C. (semi-permissive temperature).
To determine if the test compounds could rescue the ypt1^ts mutant phenotype, ypt1^ts cells were grown overnight in synthetic complete (SC) media supplementd with 2% glucose at room temperature. Log phase cells were diluted into SC 2% glucose media to an OD600 of 0.003. 100 μL of this culture was then aliquoted into each well of 96-well flat bottom microtiter plates. 1 μL of the test compounds dissolved in DMSO (at a concentration range from 5 mM-0.005 mM) or of DMSO alone was added to each well (50 uM-0.05 uM final concentration in 1% DMSO). Plates were mixed by vortexing and incubated at 35° C. and 37° C. Compound rescue of the ypt1^ts temperature sensitive defect was assessed by measuring the OD600 (optical density at 600 nm; cell growth) of the cultures. Plates incubated at 35° C. were measured at 24 and 40 hours incubation time while plates grown at 37° C. were measured after 40 hours of incubation.
Assays monitoring the rescue of ypt1^ts mutants were performed using a vehicle, a positive control (calcium), active compounds obtained from the alpha-synuclein screen (Cpd. I.1 and Cpd. II.1), alpha-synuclein-active analogs of Cpd. […] I.1 (Cpd. I.4 and Cpd. I.5).

[1] = tested on: sec23-2^ts mutant yeast strain; assay: sec23^ts mutant growth rescue assay (OD600); format: cell-based; conditions: 30° C., 24 hours, 0.05 to 50 μM
Procedure: The sec23-2^ts mutant yeast strain carries a temperature sensitive mutant allele of the SEC23 gene, which permits the strain to grow normally at 25° C., but undergo growth arrest at 30° C. or higher. Inactivation of the Sec23 temperature-sensitive mutant protein at the restrictive temperature prevents the formation of transport vesicles at the ER resulting in a block in ER to golgi trafficking (see, e.g., Hicke et al. (1989) EMBO J. 8(6):1677-1684 and Castillo-Flores et al. (2005) J. Biol. Chem. 280(40):34033-34041).
To identify compounds that rescue the sec23^ts mutant phenotype, the mutant strain was first grown at 25° C. in rich media overnight. The strain was then diluted to an OD600 of 0.004 in SC media with 2% glucose, and mixed with various dilutions of test compounds compounds compounds (0.05 to 50 μM) in SC media with 2% glucose. The cells were then incubated at 25° C. or 30° C. for 24 hours. Rescue of the sec23^ts mutant phenotype was scored as an increase in the OD600 of cells cultured in the presence of the a compound as compared to cells cultured in the absence of the test compound.

alpha-synuclein toxicity = assay: alpha-synuclein screen (rescue of cells from alpha-synuclein toxicity); format: cell-based
[2] = tested on: sar1^ts mutant yeast strain; assay: sar1^ts mutant growth rescue assay (OD600); format: cell-based; conditions: 35° C., 72 hours, 0.05 to 50 μM
Procedure: The sar1st mutant yeast strain (ATCC, Manassas, Va.) carries a temperature sensitive mutant allele of the SAR1 gene, which permits the strain to grow at 25° C., but undergo growth arrest at 35° C. or higher. Inactivation of the mutant Sar1^ts protein at 35° C. prevents the formation of transport vesicles at the ER, causing a block in ER to golgi trafficking (Saito et al. (1998) J. Biochem. (Tokyo) 124(4):816-823).
To identify compounds that rescue the sar1^ts mutant phenotype, the mutant strain was first grown at 25° C. in rich media overnight. The strain was then diluted to an OD600 of 0.004 in SC media with 2% glucose, and mixed with various dilutions of test compounds (0.05 to 50 μM) in SC media with 2% glucose. The cells were then incubated at 25° C. or 35° C. for 72 hours. Rescue of the sar1^ts mutant phenotype was scored as an increase in the OD600 (concentration of the yeast cells) cultured in the presence of a test compound as compared to cells cultured cultured in the absence of the test compound.

ΔF508 CFTR = ΔF508 CFTR stabilization in CFBE cells, western blot; format: cell-based; conditions: 16 hours, 37° C.
Procedure: Selected compounds identified in the ypt1^ts screen were further tested for their ability to stabilize ΔF508 CTFR. CFBE cells, a cell line generated by transformation of cystic fibrosis tracheo-bronchial cells (ΔF508 CTFR homozygous) with SV40 (Bruscia et al. (2002) Gene Ther. 9(11):683-685), were cultured with 10 μM Cpd. I.3, 10 μM Cpd. II.2, or 10 μM VRT-325 for 16 hours at 37° C. (VRT-325 is described in, e.g., Van Goor et al. (2006) Am. J. Physiol. Lung Cell Mol. Physiol. 290:L1117-L1130). A population of cells was also cultured with the dimethyl sulfoxide (DMSO) solvent as a control.
Following incubation, cells were lysed, solubilized in Laemmli buffer, and subjected to SDS-PAGE. CFTR protein was visualized by western blotting using an antibody specific for CFTR. Culturing CFBE cells with Cpd. I.3 or Cpd. II.2 increased the amount of cellular ΔF508 CFTR protein (see band “B,” FIG. 3A). Cpd. I.3 and Cpd. […] The effects of Cpd. I.3 or Cpd.
Next, to test the effect of different concentrations of Cpd. I.3 and Cpd. II.2 on ΔF508 CFTR, a dose response experiment was performed. CFBE cells were grown at 37° C. for 16 hours in the presence of 1, 2.5, 5, or 10 μM Cpd. I.3 or Cpd. II.2. Following incubation, lysates were prepared from the various treated cell populations, the lysates solubilized in Laemmli buffer, and subjected to SDS-PAGE. The relative amounts of glysosylated (band “C”) and unglycosylated (band “B”) ΔF508 CFTR protein were visualized by western blotting as above (FIGS. 4A and 4C). The band intensities were quantitated by scanning and densitometry. […] I.3 (FIG. 4B) and Cpd. II.2 (FIG. 4D), respectively.

Compound: CCC(=O)/N=C(\N)Nc1nc2ccccc2s1 [Cpd. I.1]
- rescue of ypt1^ts loss of function / restoring growth of ypt1^ts (ypt1^ts cells): rescue
- rescue of the sec23^ts mutant phenotype [1]: rescue
- activity in the alpha-synuclein screen (alpha-synuclein toxicity): active
- rescue of the sar1^ts mutant phenotype [2]: rescue

Compound: N=C(NC(=O)[C@H]1C[C@@H]1c1ccccc1)Nc1nc2ccccc2o1 [Cpd. I.2]
- rescue of ypt1^ts loss of function / restoring growth of ypt1^ts (ypt1^ts cells): rescued
- activity in the alpha-synuclein screen (alpha-synuclein toxicity): active

Compound: N/C(=N\C(=O)C1CCCCC1)Nc1nc2ccccc2o1 [Cpd. I.4]
- rescue of ypt1^ts loss of function / restoring growth of ypt1^ts (ypt1^ts cells): did not
- activity in the alpha-synuclein screen (alpha-synuclein toxicity): inactive

Compound: N=C(NC(=O)[C@@H]1C[C@@H]1c1ccccc1)Nc1nc2ccccc2o1 [Cpd. I.5]
- rescue of ypt1^ts loss of function / restoring growth of ypt1^ts (ypt1^ts cells): did not
- rescue of the sec23^ts mutant phenotype [1]: not detected
- activity in the alpha-synuclein screen (alpha-synuclein toxicity): inactive
- rescue of the sar1^ts mutant phenotype [2]: rescue

Compound: N/C(=N\C(=O)CCc1ccco1)Nc1nc2ccccc2o1 [Cpd. I.6]
- rescue of the sec23^ts mutant phenotype [1]: not detected
- rescue of the sar1^ts mutant phenotype [2]: rescue

Compound: O=C1CC(c2ccccc2)c2ccc3ccccc3c2N1 (stereo not drawn) [Cpd. II.1]
- rescue of ypt1^ts loss of function / restoring growth of ypt1^ts (ypt1^ts cells): rescue
- rescue of the sec23^ts mutant phenotype [1]: not detected
- activity in the alpha-synuclein screen (alpha-synuclein toxicity): active
- rescue of the sar1^ts mutant phenotype [2]: not detected

Compound: O=C1CC(c2cccc(Cl)c2)c2ccc3c(c2N1)CCC3 (stereo not drawn) [Cpd. II.2]
- rescue of the sec23^ts mutant phenotype [1]: not detected
- effects on stabilizing ΔF508 CFTR compared with VRT-325 (ΔF508 CFTR; 10 μM): comparable or better
- amount of cellular ΔF508 CFTR protein (band B) (ΔF508 CFTR; 10 μM, vs DMSO): increased
- amount of the glycosylated form of ΔF508 CFTR (band C) (ΔF508 CFTR; 10 μM, vs DMSO): increased
- concentration at which efficacy reached a maximum (dose response curves from western blot) (ΔF508 CFTR): 2.5 to 5 µM
- amount of glycosylated and unglycosylated ΔF508 CFTR proteins compared to absence of compound (ΔF508 CFTR; all concentrations tested (1-10 μM)): increase
- rescue of the sar1^ts mutant phenotype [2]: not detected

Compound: O=C1CC(c2cccc(Cl)c2)c2cc3c(cc2N1)CCC3 (stereo not drawn) [Cpd. II.3]
- rescue of the ypt1^ts mutant phenotype (ypt1^ts cells; 5.0 μM, 37° C., 40 hours): rescued

Compound: COc1ccc(OC)c(C2CC(=O)Nc3c2ccc2ccccc32)c1 (stereo not drawn) [II.12]
- rescue of the sec23^ts mutant phenotype [1]: not detected
- rescue of the sar1^ts mutant phenotype [2]: not detected

Compound: O=C1CC(c2cccc(Cl)c2)c2ccc(-c3ccccc3)cc2N1 (stereo not drawn) [II.27]
- rescue of the sec23^ts mutant phenotype [1]: not detected
- rescue of the sar1^ts mutant phenotype [2]: not detected

Compound: O=C1CC(c2cccc(Cl)c2)c2cc3c4c(cccc4c2N1)CC3 (stereo not drawn) [II.57]
- rescue of the sec23^ts mutant phenotype [1]: not detected
- rescue of the sar1^ts mutant phenotype [2]: not detected

Compound: C#Cc1cccc(C2CC(=O)Nc3c2ccc2c3CCC2)c1 (stereo not drawn) [II.59]
- rescue of the sec23^ts mutant phenotype [1]: not detected
- rescue of the sar1^ts mutant phenotype [2]: not detected

Compound: CC(C)C[C@@H](C=O)NC(=O)[C@H](CC(C)C)NC(=O)[C@H](CC(C)C)NC(=O)OCc1ccccc1 [MG132, reference compound] (Cbz-Leu-Leu-Leu-aldehyde)
- rescue of ypt1^ts loss of function (ypt1^ts cells; 37° C., 40 hours, range 0.05-50 μM, intermediate concentrations): rescued

Compound: COc1ccc(S(=O)(=O)N2CCN(C(C)c3nc(OC4CCCCC4)c4ccccc4n3)CC2)cc1 (stereo not drawn) [VRT-325, reference compound]
- stabilization of ΔF508 CFTR protein in CFBE cells (ΔF508 CFTR; 10 μM): stabilization

Compound: [Ca+2] [calcium, reference compound]
- rescue of ypt1^ts loss of function / restoring growth of ypt1^ts (ypt1^ts cells): rescued

Compound: C[C@@H]1C[C@@H]([C@H](O)CC2CC(=O)NC(=O)C2)C(=O)[C@@H](C)C1 [cycloheximide, reference compound]
- rescue of ypt1^ts loss of function / restoring growth of ypt1^ts (ypt1^ts cells): effective
- rescue of the sec23^ts mutant phenotype [1]: not detected
- rescue of the sar1^ts mutant phenotype [2]: rescue

Compound: COc1cccc2c1C(=O)c1c(O)c3c(c(O)c1C2=O)C[C@@](O)(C(=O)CO)C[C@@H]3O[C@H]1C[C@H](N)[C@H](O)[C@H](C)O1 [doxorubicin, reference compound]
- rescue of ypt1^ts loss of function / restoring growth of ypt1^ts (ypt1^ts cells): effective
- rescue of the sec23^ts mutant phenotype [1]: not detected
- rescue of the sar1^ts mutant phenotype [2]: not detected

Compound: CO[C@@H]1[C@@H](OC(N)=O)[C@@H](O)[C@H](Oc2ccc3c(O)c(NC(=O)c4ccc(O)c(CC=C(C)C)c4)c(=O)oc3c2C)OC1(C)C [novobiocin, reference compound]
- rescue of ypt1^ts loss of function / restoring growth of ypt1^ts (ypt1^ts cells): effective

Compound: aureobasidin [reference compound]
- rescue of ypt1^ts loss of function / restoring growth of ypt1^ts (ypt1^ts cells): effective
- rescue of the sec23^ts mutant phenotype [1]: not detected
- rescue of the sar1^ts mutant phenotype [2]: not detected

Compound: tunicamycin [reference compound]
- rescue of ypt1^ts loss of function / restoring growth of ypt1^ts (ypt1^ts cells): effective
